The results in this text go back to US9315531B2, “Titanocene-gold derivatives comprising thiolato ligands” (Research Foundation of the City University of New York, priority 2014, dated 2016).

One data set concerns AKT. Kind of data set: Protein kinase expression in Caki-1 whole cell lysates, AKT. The data set is classed as cell-based, human. The conditions noted are these: Caki-1, 5 μM, by 12 hours post-treatment. As for the experimental part: Whole cell lysates of Caki-1 cells treated with compounds 2 or 6 were also evaluated for their effects on the expression levels of selected protein kinases, namely p90-RSK, AKT and MAPKAPK3. […] Because all three enzymes have been implicated in promoting cell migration and therefore are strong targets for anti-metastasis drugs, these findings predict that compound 2 would be effective in controlling metastatic potential of renal tumors.
Cell lysis and immunoblotting: Caki-1 cells were seeded into 10-cm dishes at a density of 2.2×10^6 and incubated for 24 hours. […]
The protein concentration was determined with BCA protein dye reagent (Pierce, Fisher Scientific Pittsburgh, Pa.). Samples were denatured with 5×SDS sample buffer (0.25% bromophenol blue, 0.5 M dithiothreitol (DTT), 50% glycerol 50% (v/v), 10% sodium dodecyl sulfate (SDS) followed by heating at 95° C. for 5 minutes. Proteins were separated by SDS-PAGE, transferred to a PVDF membrane (Millipore Corp.), and probed with MAPKAPK-3 antibody (Cell Signaling Technology, Danvers, Mass., USA), as well as β-actin antibody (Cell Signaling Technology, Danvers, Mass., USA). Immunoreactive bands of primary antibodies were detected using HRP goat anti-rabbit and secondary antibodies were detected with peroxidase-conjugated secondary antibody and detected by chemiluminescence (Pierce Biotechnology, Rockford, Ill.).

The subject of the next data set is Caki-1 cells. In kind it is cell-based, human. To be noted: Caki-1, 5 μM.
A short description of data set [1]: Pharmacokinetics in blood/plasma (ICP-MS, gold content).
Experimental: Blood was collected by retro-orbital bleeding into heparinized blood collection vials on ice at time intervals of 30 minutes, 2 hours, 6 hours, 24 hours, and 48 hours after the first dose.
Gold and titanium content was determined using ICP-MS. […] The mixture was heated at 90° C. for 5 hours. After cooling, the samples were diluted with water, 40 ppb of Indium internal standard was added and analyzed in a Thermo Scientific XSERIES 2 ICP-MS with ESI PC3 Peltier cooled spray chamber with SC-FAST injection loop and SC-4 autosampler. All the elements were analyzed using He/H2 collision-reaction mode. Plasma from control mice was spiked with the test compounds to determine the extraction efficiency of gold and titanium.
Pharmacokinetic estimates were obtained from the plasma concentration-time profiles by non-compartmental analysis.
The next data set has as its system plasmid pBR322 DNA. Kind of data set: Electrophoresis mobility shift assay. To be noted: metal/DNAbp ratios 0.25-2.0, 37° C., 20 h. In kind it is binding.
Data set [2] is described as follows: Solubility in DMSO/aqueous mixtures. In kind it is physicochemical. To be noted: at micromolar concentrations. From the text: Both compound 2 and compound 3 were less acidic than titanocene dichloride and were soluble in DMSO/water, DMSO/PBS and DMSO/media (1:99) mixtures at micromolar concentrations. These compounds were unusually stable methyl-containing titanocene moieties that were stable as solids at room temperature, while exposed to air in CDCl3 solution for at least five days.

Experimental for Caki-1 cells: Anti-invasive properties were evaluated by using a wound-healing scratch assay.
Cell migration: For wound healing assays, Caki-1 cells were seeded in 6 cm dishes at a density of 0.8×10^6 in complete media, then grown to confluence for twenty-four hours at 37° C. (5% CO2), then cross-shape wounds/scratches were performed in the monolayer using a sterile 10 μl pipette tip. […] To quantify cell migration, the area of the initial wound (T0) is compared with the area of the healing wound at three time points after the scratch is introduced. Percent Migration=[area of original wound−area of wound during healing]/Area of original wound]×100.
Experimental for plasmid pBR322 DNA: Agarose gel electrophoresis assays were performed whereby decreased electrophoretic mobility of both forms were taken as evidence of metal-DNA binding.
Mobility Shift Assay: 10 μL aliquots of pBR322 plasmid DNA (20 μg/mL) in buffer (5 mM Tris/HCl, 50 mM NaClO4, pH=7.39) were incubated with different concentrations of the compounds (2, 3, 4, 5), and titanocene dichloride) (in the range 0.25 and 4.0 metal complex:DNA bp) at 37° C. for 20 h in the dark. Samples of free DNA and cisplatin-DNA were prepared as controls. After the incubation period, the samples were loaded onto the 1% agarose gel. The samples were separated by electrophoresis for 1.5 h at 80 V in Tris-acetate/EDTA buffer (TAE). Afterwards, the gel was stained for 30 min with a solution of GelRed nucleic acid stain.

For the substance “[(η-C5H5)2TiMe(μ-mba)Au(PPh3)] [Compound 2]”, the “expression of AKT” value in the data set with AKT is on record as “dramatic decreases in expression”. Also, the inhibition of migration result with Caki-1 cells was “complete inhibition of migration”. The “blood concentration at the time of the second dose” value in data set [1] (48 hours after the first dose, 3 mg/kg) worked out at 40400 ± 6000 ng/mL. The absorption into blood entry in data set [1] (blood levels up to twenty-four hours) is “slow absorption”. The “effect on electrophoretic mobility of plasmid DNA forms” value in the data set on plasmid pBR322 DNA was “did not affect the mobility”. Moreover, in data set [2], the “solubility in DMSO/water, DMSO/PBS and DMSO/media (1:99) mixtures” value is reported as “soluble”.
